Holding throughout (experiment): NCI-60 cell line screen, 48 h
For test [1], the system named is LOX IMVI melanoma.
The test system of test [2] is NCI/ADR-RES ovarian.
Test [3] deals with HT29 colon.
In test [4] the test system is HCT-116 colon.
The test system of test [5] is RPMI-8226 leukemia.
Test [6] relates to 786-0 renal.
Test [7] concerns NCI-H226 lung.
Test [8] deals with MCF7 breast.
Test [9] deals with ACHN renal.
The subject of test [10] is SR leukemia.

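Cells were grown in 96-well plates and exposed to each compound for 48 hours at five concentrations; endpoints were interpolated linearly between bracketing concentrations, or set to the highest concentration if not reached. Here, GI50 denotes the concentration required for 50% inhibition of growth. Definition used: TGI = concentration required for complete inhibition of growth.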

Here are results for 25 molecules from PubChem BioAssay (NCI).

With `CN(C)N1C(=O)c2ccccc2NC1c1ccccc1` (stereo unspecified), the TGI in test [1], in [2], in [3], in test [4], in test [5] and in test [6] was over 100 µM each time. Also, the TGI in test [7], in test [8] and in test [9] was over 100 µM throughout.

As for `CC(=O)OC1CC2C(C)(C)C(=O)C=C[C@]2(C)C2CCC3(C)C(c4ccoc4)C(=O)[C@H]4O[C@]43[C@]12C` (stereo partly specified), the TGI amounted to 42.6 µM in test [1]; 28.7 µM in test [4]; 47.3 µM in test [5]; 35.5 µM in [6]; 50.4 µM in test [7]; 45.1 µM in test [9].

`O=C1C[C@@H]2C(COC(=O)c3ccccc3)N(OCc3ccccc3)C[C@@H]2O1` (stereo partly specified): the TGI in test [1], in [10], in test [3], in test [4], in test [6] and in [7] was over 100 µM each time. The same molecule yielded a TGI in test [9] of over 100 µM.

Turning to `CN1c2ccccc2N(C)C2C1N(C)c1ccccc1N2C` (stereo unspecified), the TGI is over 100 µM in test [3]; 42.4 µM in test [4]; 62.9 µM in [5]; over 100 µM in test [6]; 83.2 µM in test [7]; over 100 µM in test [9].

Regarding `CN(C)CCCN1c2nc3ccccc3cc2Sc2cc3ccccc3nc21`, the GI50 in test [1] is 1.55 µM; in [2] it was 1.88 µM; in test [3] it was 1.18 µM; in test [4], 1.1 µM; in test [5], 0.45 µM; in test [6], 1.24 µM. Moreover, the GI50 is 1.46 µM in [7], 0.859 µM in test [8] and 1.55 µM in test [9]. In addition, the TGI in test [1] was 3.16 µM; in [2] it was 5.39 µM; in [3], 5.1 µM; in test [4] it was 2.31 µM; in test [5], 2.08 µM; in [6] it was 2.5 µM. For the same molecule, the TGI in [7] came out at 4.03 µM; in test [8] it was 2.18 µM; in [9], 2.94 µM.

With `Cc1ccc(S(=O)(=O)NC(=O)NC23CC4CC(CC(F)(C4)C2)C3)cc1`, the TGI in test [1], in test [3], in test [4], in test [5], in [6] and in [9] was over 100 µM throughout.

On to `CC1(C)OC(=O)C=C([O-])O1.CC1(C)OC(=O)C=C([O-])O1.O=S(=O)([O-])c1ccc([O-])c2ncccc12.O=S(=O)([O-])c1ccc([O-])c2ncccc12.[Ti+4]`, for which the GI50 in test [1] is 46.7 µM; in [3], over 100 µM; in test [4], 41.8 µM; in test [5] it was over 100 µM; in test [6] it was over 100 µM; in test [7], over 100 µM. Besides, the GI50 in test [9] was 50.3 µM. For the same molecule, the TGI in [1], in test [3], in [4], in test [5], in [6] and in [7] was over 100 µM throughout. The same molecule returned a TGI in [9] of over 100 µM.

`Cn1ncc2c(N)nc(N3CCCCC3)nc21`: the GI50 in [1] was 22.7 µM; in test [2], over 100 µM; in [3] it was 22.5 µM; in test [4] it was 45.3 µM; in [5], 33.1 µM; in test [6], 69.3 µM. For the same molecule, the GI50 in test [7] was 22.1 µM; in [8], 17.1 µM; in test [9], 33.6 µM. The TGI in test [1] was 51.4 µM; in test [2], over 100 µM; in test [3], 68.6 µM; in test [4], over 100 µM; in [5] it was over 100 µM; in [6], over 100 µM. Moreover, the results for the TGI in test [7], in test [8] and in test [9] were 48.3 µM, 39.9 µM and over 100 µM, respectively.

`O=C(Nc1ccc(Cl)cc1)c1ccc(NC2=C(Cl)C(=O)N(Cc3ccccc3)C2=O)cc1`: the GI50 in test [1] is 12.7 µM; in test [2], 4.14 µM; in [3] it was 20 µM; in test [4], 2.41 µM; in test [5], 2.7 µM; in test [6] it was 10.8 µM. In addition, the GI50 was 11.2 µM in test [7], 15.3 µM in test [8] and 15.7 µM in test [9]. For the same molecule, the TGI in test [1] is 32.7 µM; in test [2], 14.8 µM; in test [3], over 100 µM; in test [4], 7.59 µM; in [5] it was 12.4 µM; in [6] it was 24.4 µM. Besides, the results for the TGI in test [7], in test [8] and in test [9] were 28.4 µM, 33.8 µM and 35.3 µM, respectively.

In the case of `OCC1OC(n2ccc3c(NO)ncnc32)C(O)C1O` (stereo unspecified), the GI50 in test [1] was 0.0665 µM; in test [2], 0.238 µM; in [3] it was 0.13 µM; in [4], 0.0296 µM; in test [5], 0.138 µM; in test [6] it was 0.239 µM. Besides, the results for the GI50 in [7], in [8] and in [9] were 0.251 µM, 0.13 µM and 0.0391 µM, respectively. Besides, the TGI in [1] is 1.27 µM; in test [2], 1.64 µM; in test [3], 0.94 µM; in [4], 1.03 µM; in test [5] it was 0.504 µM; in test [6] it was 1.1 µM. The TGI amounted to 1.68 µM in [8] and 3.17 µM in test [9].

As for `COCC(=O)CP(=O)(OC)OC`, the TGI in test [1], in [3], in test [4], in [5], in test [6] and in test [9] was over 100 µM in each case.

Take `Clc1ccc2[nH]cc(-c3nc(-c4c[nH]c5ncccc45)cs3)c2c1`: the GI50 in test [1] was 2.71 µM; in [2], 3.09 µM; in test [4], 3.23 µM; in [5], 3.34 µM; in test [6], 2.34 µM; in test [7], 3.69 µM. The GI50 in test [8] was 2.46 µM; in [9], 2.82 µM. Also, the TGI in test [1] came out at 12.1 µM; in test [2], 16.9 µM; in test [4], 13.7 µM; in test [5] it was 77.1 µM; in [6], 5.89 µM; in [7], 22.2 µM. Besides, the figures for the TGI in test [8] and in test [9] were 16.5 µM and over 100 µM, respectively.

`C(CCC[Te][Te]CCCCCCOC1CCCCO1)CCOC1CCCCO1` (stereo unspecified): the TGI worked out at 35.1 µM in test [1]; 38.2 µM in test [10]; 25.6 µM in test [3]; 55.8 µM in [4]; 29.4 µM in test [6]; 22.7 µM in test [9].

On to `CCOC(=O)c1[nH]c(-c2ccc(Cl)cc2)cc1-c1cccnc1`, for which the GI50 in [1] is 0.659 µM; in test [2] it was 0.511 µM; in [3], 0.35 µM; in test [4], 0.387 µM; in test [6] it was 0.44 µM; in test [7] it was 17.3 µM. Further, the results for the GI50 in [8] and in test [9] were 0.453 µM and 0.714 µM, respectively. Moreover, the TGI in test [1] was over 100 µM; in test [2] it was over 100 µM; in test [3], over 100 µM; in test [4], over 100 µM; in test [6] it was 8.58 µM; in test [7], over 100 µM. Besides, the TGI in test [8] and in test [9] was over 100 µM throughout.

Regarding `COc1cc2c3c(n(CCCNCCN)c(=O)c2cc1OC)-c1cc2c(cc1C3=O)OCO2`, the GI50 in [1] was 0.0299 µM; in [2], 18.9 µM; in [3] it was 1.08 µM; in test [4], 0.359 µM; in [5], 0.475 µM; in test [6], 0.312 µM. Besides, the GI50 is 1.1 µM in test [7], 0.616 µM in [8] and 0.304 µM in test [9]. Further, the TGI in test [1] is 0.244 µM; in [2], over 62.4 µM; in test [3], 10.4 µM; in test [4], 0.986 µM; in [5], 3.02 µM; in test [6], 2.5 µM. In addition, the TGI in test [7] was 2.55 µM; in [8], over 100 µM; in test [9], 1.01 µM.

`Cn1c(=O)nc2n(-c3cccc(F)c3)c3ccccc3nc-2c1=O`: the TGI is 61.8 µM in test [1]; 32.5 µM in test [3]; 77.8 µM in test [4]; 72.6 µM in test [5]; over 100 µM in test [6]; over 100 µM in [7]. This molecule also came in with a TGI in [9] of 68.2 µM.

Turning to `Cc1c(C(=O)c2ccccc2C(=O)O)c2ccccc2n1C`, the TGI in [3], in test [4], in [5], in [6], in test [7] and in [9] was over 100 µM in each case.

Consider `O=C(O)/C(=C/c1c(O)ccc2ccccc12)c1csc(-c2nc(/C(=C\c3c(O)ccc4ccccc34)C(=O)O)cs2)n1`, for which the TGI in test [1] came out at 43.4 µM; in test [3], 52.2 µM; in test [4], 23.3 µM; in test [5] it was 43.8 µM; in test [6], 26.8 µM; in test [7] it was 7.39 µM. In [9], the TGI came out at 18.8 µM.

Consider `CO/C1=C\C(C)=C\C(C)C(O)C(C)C/C(C)=C/C=C/C(OC)C(C(C)C(O)C(C)C2(O)CC(O)C(C)C(C(C)C)O2)OC1=O` (stereo unspecified), for which the results for the TGI in test [1], in [6] and in test [9] were 2.64e-05 µM, 10.4 µM and 13.2 µM, respectively.

As to `C=C1C(=O)O[C@H]2[C@H]1CC/C(COC(=O)NCc1ccc(Cn3c(=O)sn(CCCCl)c3=O)cc1)=C\CC[C@@]1(C)O[C@@H]21`, the GI50 in [1] is 1.58 µM; in [2], 26.9 µM; in test [3], 2.46 µM; in test [4], 0.565 µM; in [5], 0.764 µM; in test [6], 1.48 µM. Also, the GI50 in test [7] is 16.6 µM; in test [8], 1.71 µM; in test [9], 1.66 µM. Further, the TGI in test [1] is 3.09 µM; in test [2], over 100 µM; in [3], 5.58 µM; in test [4], 1.87 µM; in test [5], 3.1 µM; in [6], 2.9 µM. Moreover, the results for the TGI in test [7], in test [8] and in [9] were 42.6 µM, 4.54 µM and 3.05 µM, respectively.

For `CCOC(=O)C1(Cc2ccccc2)CCCCCN1` (stereo unspecified), the TGI in [1], in test [3], in test [6] and in test [9] was over 100 µM throughout.

For `N#Cc1c(-c2ccccc2)cc(-c2ccc(Nc3nc(Nc4ccc(Cl)cc4)nc(Nc4ccc(Cl)cc4)n3)cc2)nc1N`, the GI50 was 1.85 µM in [1]; 16.2 µM in [2]; 3.8 µM in [3]; 1.48 µM in [4]; 3.81 µM in test [5]; 1.91 µM in [6]. Further, the GI50 in [7] was 1.73 µM; in [8] it was 1.56 µM; in test [9], 1.64 µM. Moreover, the TGI is 4.33 µM in [1]; over 100 µM in test [2]; 16.5 µM in test [3]; 3 µM in [4]; over 100 µM in [5]; 3.46 µM in [6]. For the same molecule, the TGI in [7] was determined as 3.75 µM; in test [8] it was 4.16 µM; in test [9], 3.26 µM.

Consider `NC(=O)N/N=C/C(/C=N/NC(N)=O)[N+](=O)[O-]`, for which the TGI in test [1], in [3], in test [4], in [5], in test [6] and in test [7] was over 100 µM each time. Also, the TGI in test [9] is over 100 µM.

`O=c1cc2ccccc2nn1Cc1ccccc1Cl`: the TGI in test [1], in [3], in [4], in test [5], in test [6] and in test [7] was over 100 µM in each case. The molecule further returned a TGI in [9] of over 100 µM.

As to `C1CSCCCSCCSCCCSC1`, the TGI in test [1], in [3], in test [4], in test [5], in test [6] and in test [7] was over 100 µM throughout. The TGI in test [8] and in test [9] was over 100 µM each time.
